Test results reported in US20240342195A1, “AGENT FOR COMBINATION USE COMPRISING T CELL AND/OR B CELL ACTIVITY REGULATOR” (TOKAI UNIVERSITY EDUCATIONAL SYSTEM, priority 2021, published 2024).
Entries after “also recorded” stand apart in the source; their conditions may differ.

Assays:
[1] = test system: T cell (CD3 gated) in human PBMCs; experiment: atezolizumab addition experiment, PD-L1/PD-1 expression on T cell by FCM; assay type: cell-based; details: 0 to 200 μM; TSST-1; 3 days
Protocol: (§1) As for an experiment of atezolizumab addition, 0 to 200 μM P4 or COR, 1 μM TSST-1, and 100 μg/mL atezolizumab were added to PBMCs, and the resultant was cultured for 72 hours at 37° C. in 5% CO2, followed by analysis by FCM.

JEG-3 = experiment: proliferating ability of cell line cultured with P4 or COR; assay type: cell-based, human; details: 200 μM, cultured 10 days
Protocol: (§2) Each of human choriocarcinoma cell line JEG-3, BeWo, and embryonic kidney cell line HEK293 was cultured for 10 days at 37° C. in 5% CO2 in a 10% Fetal Calf Serum (FCS)-containing DMEM (Gibuco) to which water-soluble progesterone (P4; water soluble) (Sigma) or cortisol (COR) (Sigma) was added in various concentrations. Each of mouse myeloma cell line P3-X63-Ag8-U1 (P3X) and mouse lymphoma cell line A20 was cultured for 3 days at 37° C. in 5% CO2 in 10% FCS-containing RPMI 1640 to which P4 or COR was added in various concentrations. Proliferation of the cells was evaluated by measuring the number of the cells.

HEK293 = experiment: as above; assay type: cell-based, human; details: 200 μM, cultured 10 days
Protocol: as §2

BeWo = experiment: as above; assay type: cell-based, human; details: 200 μM, cultured 10 days
Protocol: as §2

B cell in PBMCs [2] = experiment: restimulation experiment (transient vs continuous P4/COR), PD-L1 on B cells; assay type: cell-based, human; details: TSST-1 3 days
Protocol: (§3) In a restimulation experiment, PBMCs were cultured for 6 hours at 37° C. in 5% CO2 in 10% FCS-containing RPMI 1640 to which 200 μM P4 or COR was added. These cells were washed, adjusted to a final concentration of 1×10^6/mL, and cultured again in the presence or absence of 200 μM P4 or COR with stimulation by 1 μM TSST-1. After 72 hours, the resultant cells were collected to be analyzed by FCM.

[3] = test system: Human peripheral blood mononuclear cells (PBMCs); experiment: cytokine production in PBMCs activated in the presence of P4; assay type: cell-based; details: 0 to 200 μM; PBMCs + TSST-1; 3 days
Protocol: (§4) The PBMCs (final concentration: 1×10^6/mL) were cultured for 3 days at 37° C. in 5% CO2 in 10% FCS-containing RPMI 1640 to which P4 or COR was added in various concentrations with stimulation by 1 μg/mL of toxic shock syndrome toxin-1 (TSST-1). These cells were collected, washed with PBS, and dispensed into a Fisher tube in an amount of 1×10^6 cells/tube. For analysis of a human cell surface marker, a fluorescent-labeled anti-human monoclonal antibody (mAbs) was used. The cells were stained with the mAbs, a reaction was performed for 15 minutes at 4° C., and the resultant was washed with PBS containing 1% (w/v) BSA. Then, the resultant was analyzed by FACS Fortessa, or FACS Verse (BD Bioscience, Franklin Lakes, NJ). In the analysis, a leukocyte gated or lymphocyte gated cells were further gated by expression of human CD45, and then the analysis was performed. A culture supernatant was collected, and 25 μL thereof was dispensed to quantitatively determine cytokine with Legend Plex™ kit from BioLegend.

[4] = test system: Human peripheral blood mononuclear cells (PBMCs); experiment: number of cells of TSST-1-stimulated PBMCs cultured with P4 or COR; assay type: cell-based; details: PBMCs + TSST-1; 3 days; high concentration
Protocol: as §4

PBMC-NOG-hIL-4-Tg mouse = experiment: transplantation of P4/COR-cultured PBMCs to NOG-hIL-4-Tg mouse immunized with CH401MAP; assay type: in vivo
[5] = test system: B cell (CD19 gated) in human PBMCs; experiment: atezolizumab addition experiment, PD-L1/PD-1 expression on B cell by FCM; assay type: cell-based; details: TSST-1, 3 days
Protocol: as §1

[6] = test system: CD4 and CD8 T cells in PBMCs; experiment: restimulation experiment (transient vs continuous P4/COR), PD-1/PD-L1 on T cells; assay type: cell-based, human; details: CD4 and CD8 T cells, TSST-1 3 days
Protocol: as §3

P3-X63-Ag8-U1 (P3X) = experiment: proliferating ability of cell line cultured with P4 or COR; assay type: cell-based, mouse; details: cultured 3 days
Protocol: as §2

A20 = experiment: as above; assay type: cell-based, mouse; details: cultured 3 days
Protocol: as §2

[7] = test system: Hu-PBMC-NOG (GVHD onset model); experiment: GVHD onset model: human PBMCs transplanted to NOG mouse, P4 or COR administered subcutaneously; assay type: in vivo; details: 4 weeks
Protocol: In the analysis using the GVHD model, PBMCs prepared in the same manner as described above were washed with PBS, and 2.5×10^6 PBMCs were intravenously transplanted to each 8- to 9-week-old NOG mouse. […] At the same time as the administration, the weight was measured. After 4 weeks, the mouse was anesthetized to collect heart blood, and euthanized. From various lymphoid organs excised, human cells were prepared, hemolyzed, and then subjected to FCM. Besides, the lung and the liver were excised, and immunohistochemically stained as follows. A tissue of the mouse was immobilized with 20% formalin (Wako Pure Chemical Industries, Ltd.), and embedded in paraffin. The obtained paraffin block was sliced, and the resultant was subjected to deparaffinization, mounted on a slide glass, and stained with hematoxylin and eosin (HE). In immunohistochemical staining with an anti-human CD45 antibody, the slide was subjected to a heat treatment at 97° C. for 20 minutes, and subjected to an endogenous peroxidase treatment through a reaction with 0.3% H2O2/MetOH at room temperature for 10 minutes. Thereafter, the resultant was blocked with 1% goat serum, and anti-human CD45 (Dako) was added thereto, followed by a reaction overnight at 4° C. The resultant slide was washed 3 times with 0.01 M PBS for 5 minutes, and colored with a DAB solution. The resultant was washed with running water for 3 minutes, and stained with hematoxylin, followed by dehydration and penetration/encapsulation.

[8] = test system: CD4 and CD8 T cells in PBMCs; experiment: FCM analysis of activation/exhaustion markers (CD25, PD-1) on T cells of TSST-1-stimulated PBMCs; assay type: cell-based, human; details: day 3
Protocol: as §4

B cell in PBMCs [9] = experiment: FCM analysis of PD-1 on B cells of TSST-1-stimulated PBMCs; assay type: cell-based, human; details: TSST-1 and P4/COR stimulation; data not shown
Protocol: as §4

[10] = 2 mg/head subcutaneously twice a week

Compound: CC(=O)[C@H]1CC[C@H]2[C@@H]3CCC4=CC(=O)CC[C@]4(C)[C@H]3CC[C@]12C [P4, progesterone]
- PD-1 expression in a T cell [1]: reduction in PD-1 expression dependent on P4 concentration
- PD-L1 expression in a T cell [1]: reduced
- cell proliferating ability (JEG-3): little proliferated
- cell proliferating ability (HEK293): little proliferated
- cell proliferating ability (BeWo): little proliferated
- PD-L1 expression in B cell (B cell in PBMCs [2]; continuous administration, 200 μM): suppressed PD-L1 expression
- PD-L1 expression in B cell (B cell in PBMCs [2]; transient addition (200 μM 6 hours, washed)): tended to maintain the expression; also recorded: tended to rather increase PD-L1 expression
- cytokine production in culture supernatant (10 cytokines of FIG. 4) [3]: suppression of cytokine production was observed depending on the P4 concentration
- proliferation (number of cells) [4]: suppressed
- engraftment ability of transplanted PBMCs (PBMC-NOG-hIL-4-Tg mouse; PBMCs cultured with 200 μM for 6 hours before transplantation, analysis after 4 weeks): equivalent to that of a control group
- specific antibody production (CH401MAP) (PBMC-NOG-hIL-4-Tg mouse; PBMCs cultured with 200 μM for 6 hours before transplantation, plasma after 4 weeks): maintained
- expression of CD62L in human cells engrafted into the spleen (PBMC-NOG-hIL-4-Tg mouse; treated PBMCs transplanted to NOG-hIL-4-Tg, 4 weeks): increased as compared with that in a CTRL mouse
- PD-L1 expression in a B cell ([5]; 0 to 200 μM): showed PD-L1 expression
- PD-L1 expression in a B cell ([5]; 20 μM): high
- ratio of later-phase activated (PD-1/PD-L1-positive) cells ([6]; continuously added, 200 μM): remarkably reduced
- activation (PD-1/PD-L1-positive cells) vs control group ([6]; transiently added (200 μM 6 hours, washed)): substantially equivalent to or greater than that of a control group
- proliferation (P3-X63-Ag8-U1 (P3X); 20 μM or less): proliferation suppression was not observed
- proliferation (P3-X63-Ag8-U1 (P3X); high concentration of 200 μm): proliferation suppression was observed
- proliferation (A20; 20 μM or less): proliferation suppression was not observed
- proliferation (A20; high concentration of 200 μm): proliferation suppression was observed
- CD8 T cells [7, 10]: tend to increase
- GVHD symptoms [7, 10]: remarkably relieved
- number of spleen cells vs control [7, 10]: rather increased
- weight loss by GVHD [7, 10]: only slightly caused at an initial stage
- lymphocyte infiltration into a peripheral tissue such as the lung ([7]; anti-human CD45 immunohistochemical staining, 2 mg/head subcutaneously twice a week): tended to be suppressed
- CD62L expression in vivo ([7]; continuously administered to humanized NOG mouse of GVHD onset model): maintained CD62L expression in vivo for a long period of 4 weeks
- activation marker-negative (non-activated) T cells ([8]; 20 to 200 μM): increased depending on the P4 concentration
- later-phase activated (CD25-positive PD-1-positive) T cells ([8]; CD4 and CD8 T cells, 200 μM): minimally detected
- ratio of later-phase activated (CD25-positive PD-1-positive) T cells ([8]; CD4 and CD8 T cells, 20 to 200 μM): reduced dependent on the P4 concentration
- PD-1 expression on B cell (B cell in PBMCs [9]): not increased
